Laboratory results published in patent US20250102494A1, “COMPOSITION FOR PREDICTING OXALIPLATIN DRUG EFFICACY, AND USE THEREOF” (SAMSUNG LIFE PUBLIC WELFARE FOUNDATION, priority 2022, published 2025).
Like-named read-outs stand apart in the source and are kept apart here.

System: HCT116 cells
Assay: ATPlite cell viability after drug treatment, HCT116 cells in cell-line or organoid culture media
Format: cell-based
Set-up: AUC 1st / AUC 2nd / AUC 3rd / AUC Average: unit not given here
Procedure: Advanced DMEM/F12+++ (hereinafter referred to as “Ad/DF+++”) was used to produce colorectal cancer organoids. Ad/DF+++ was refrigerated at 4° C. until use, and was used in a cold state during cell washing. Ad/DF+++ medium containing the reagents shown in Table 1 below along with Ad/DF 1× (Gibco) was prepared.
After preparing the Ad/DF+++ medium containing the above reagents, an appropriate amount of Matrigel (Corning #356231) was added so that the ratio between Matrigel and cells suspended in the Ad/DF+++ medium was 7:3. Then, the cells were plated on low attachment well plates at an appropriate density. The density and the type and number of well plates were determined according to the characteristics of each cell type. The medium was prepared according to the composition shown in Table 2 below, and the cells were cultured (expanded) until the required level was reached while the medium was replaced every 3 to 4 days.
If the organoids were expanded as needed for the experiment, the medium was carefully removed, taking care not to touch the Matrigel. The cells were separated from the Matrigel by pipetting about 20 times with 1 ml of cold Ad/DF+++. The cells in 1 to 4 wells per 6-well plate were collected in one 50 ml tube. If cells are collected from more than 4 wells into one tube, the Metrigel may not be washed properly. For this reason, the cells were placed in several tubes. Thereafter, Ad/DF+++ was poured to 20 to 50 ml of each tube, followed by centrifugation at 400 g for 3 minutes at 4° C. The cells were dissociated with 1 to 2 mL of TrypLE™ Express Enzyme (Gibco, 1264-013), transferred to low-attachment 24 well plates, and then treated with 10 μM of Y-27632. Next, the cells were cultured in a CO2 incubator for 5 minutes at 37° C. After pipetting about 20 times, whether the cells would be dissociated into single cells was checked by microscopic observation. If the cells were not dissociated into single cells, the culture under CO2 and pipetting processes were repeated. After the single cells were transferred into 15-ml tubes, Ad/DF+++ was filled to 10 to 15 ml of each tube, followed by centrifugation at 400 g at 4° C. for 3 minutes. After suspending the pellet in Ad/DF+++, the cells were counted and diluted with medium according to the required number of cells.
12 hours after seeding in Experimental Example 1-2 above, the medium was changed with the medium shown in Table 3 below, followed by culturing to produce organoids.
Four hours after the medium change, the cells were treated with oxaliplatin, 5-FU, Irinotecan, and folinic acid. Five days after drug treatment, intracellular ATP expression was determined using the ATPlite assay kit (PerkinElmer), and the data were expressed in terms of cell viability, IC50, and AUC.
As the standard for confirming that cells are sensitive to the drug, the response of the cells to the drug was assumed to be 100%, and the luminescence value of surviving cells after drug treatment was analyzed and compared with the quantified drug response value.
Based on the assumption that the factor that increases the resistance of the organoids to oxaliplatin is an activator or inhibitor that changes the phenotype, the organoids prepared by excluding some or all of activators and inhibitors as shown in Table 4 below were treated with oxaliplatin.
In order to identify the factors that reduce the resistance to oxaliplatin of the Ex2 organoid, activators or inhibitors that change the phenotype were added one by one to the Ex2 organoid composition, thus producing organoids as shown in Table 8 below. Then, it was checked whether the produced organoids had increased resistance to oxaliplatin.

## O=C1[O][Pt]2([NH][C@@H]3CCCC[C@H]3[NH]2)[O]C1=O [oxaliplatin]
HCT116 in Ex2-2, average
  AUC Average: 302.1
HCT116 in Ex2-2, average, read-out: IC50 (μM) Average
  IC50: 22.5 µM
HCT116 in Ex2-3 (Ex2 + SB 202190 10 μM), 1st
  AUC 1st: 306.6
HCT116 in Ex2-3 (Ex2 + SB 202190 10 μM), 1st, read-out: IC50 (μM) 1st
  IC50: 30.2 µM
HCT116 in Ex2-3, 2nd
  AUC 2nd: 343.3
HCT116 in Ex2-3, 2nd, read-out: IC50 (μM) 2nd
  IC50: 63.4 µM
HCT116 in Ex2-3, 3rd
  AUC 3rd: 287.0
HCT116 in Ex2-3, 3rd, read-out: IC50 (μM) 3rd
  IC50: 18.2 µM
HCT116 in Ex2-3, average
  AUC Average: 312.3
HCT116 in Ex2-3, average, read-out: IC50 (μM) Average
  IC50: 37.3 µM
HCT116 in Ex2-4 (Ex2 + Wnt3a), 1st
  AUC 1st: 258.2
HCT116 in Ex2-4 (Ex2 + Wnt3a), 1st, read-out: IC50 (μM) 1st
  IC50: 5.9 µM
HCT116 in Ex2-4, 2nd
  AUC 2nd: 304.7
HCT116 in Ex2-4, 2nd, read-out: IC50 (μM) 2nd
  IC50: 38.8 µM
HCT116 in Ex2-4, 3rd
  AUC 3rd: 315.9
HCT116 in Ex2-4, 3rd, read-out: IC50 (μM) 3rd
  IC50: 26.9 µM
HCT116 in Ex2-4, average
  AUC Average: 292.9
HCT116 in Ex2-4, average, read-out: IC50 (μM) Average
  IC50: 23.8 µM
HCT116 in Ex2-5 (Ex2 + R-spondin 1 1 μg/ml), 1st
  AUC 1st: 317.5
HCT116 in Ex2-5 (Ex2 + R-spondin 1 1 μg/ml), 1st, read-out: IC50 (μM) 1st
  IC50: 34 µM
HCT116 in Ex2-5, 2nd
  AUC 2nd: 322.7
HCT116 in Ex2-5, 2nd, read-out: IC50 (μM) 2nd
  IC50: 43 µM
HCT116 in Ex2-5, 3rd
  AUC 3rd: 351.6
HCT116 in Ex2-5, 3rd, read-out: IC50 (μM) 3rd
  IC50: 103 µM
HCT116 in Ex2-5, average
  AUC Average: 330.6
HCT116 in Ex2-5, average, read-out: IC50 (μM) Average
  IC50: 60 µM
HCT116 in Ex2-6 (Ex2 + Noggin 100 ng/ml), 1st
  AUC 1st: 264.3
HCT116 in Ex2-6 (Ex2 + Noggin 100 ng/ml), 1st, read-out: IC50 (μM) 1st
  IC50: 7.8 µM
HCT116 in Ex2-6, 2nd
  AUC 2nd: 309.4
HCT116 in Ex2-6, 2nd, read-out: IC50 (μM) 2nd
  IC50: 41.4 µM
HCT116 in Ex2-6, 3rd
  AUC 3rd: 292.6
HCT116 in Ex2-6, 3rd, read-out: IC50 (μM) 3rd
  IC50: 22.1 µM
HCT116 in Ex2-6, average
  AUC Average: 288.8
HCT116 in Ex2-6, average, read-out: IC50 (μM) Average
  IC50: 23.8 µM
HCT116 in Ex2, 2nd
  AUC 2nd: 324.8
HCT116 in Ex2, 2nd, read-out: IC50 (μM) 2nd
  IC50: 46.1 µM
HCT116 in Ex2, 3rd
  AUC 3rd: 331.7
HCT116 in Ex2, 3rd, read-out: IC50 (μM) 3rd
  IC50: 40.5 µM
HCT116 in Ex2, average
  AUC Average: 325.4
HCT116 in Ex2, average, read-out: IC50 (μM) Average
  IC50: 38.1 µM
HCT-116, FIG. 2
  drug response, colorectal cancer cell line compared with cells under Ex1 organoid culture conditions: increased resistance under the organoid culture conditions
HCT-116, FIG. 25
  drug responsiveness, colorectal cancer cell line compared with organoids cultured in Ex1 and Ex2: oxaliplatin resistance decreased in Ex2
